Test results reported in patent US8791158B2, “Methods of treating meibomian gland dysfunction” (GTX, Inc., priority 2010, dated 2014).
Marks after values point to notes of the source that are not given here.

Assays:
Format in all cases: in vivo
[1] = tested on: acute orchiectomized (ORX) rabbit model; test: Palmitate:stearate ratios in tears, Meibomian glands and harderian glands, Example 4; settings: for Palmitate:stearate ratios in Meibomian glands / Palmitate:stearate ratios in harderian glands: ORX rabbits, topical 2.5 mg/kg once daily 14 d, mean
Source text: The goal of this study was to compare the effects of Compound 1 and Compound 2, two tissue selective SARMs with differing androgenic potential, in modulating tear composition in an acute orchiectomized (ORX) rabbit model.
Twenty New Zealand white rabbits weighing approximately 3 lbs were allowed to acclimate for two weeks before the start of the study Animals were weighed on day 0 of the study, randomized according to body weight and allotted to the following dose groups:
Surgeries for the study were staggered to limit the maximum number of surgeries per day to six. One animal from each group was entered into the study every day and either sham or orchiectomy was performed as described below Animals were premedicated with glycopyrrolate (0.02 mg/kg) and anesthesia was induced with a combination of ketamine (15 mg/kg): medetomidine (0.25 mg/kg). Anesthesia was maintained with isoflurane (1 liter/hr). ORX was performed using a scrotal incision. For the sham operated animals, the scrotal sac was incised and skin closed using tissue glue Animals were revived from anesthesia using atipamezole (1 mg/kg) SQ. Analgesia was provided with buprenorphine (0.05 mg/kg).
Immediately after the animals had recovered from anesthesia, they were dosed with the appropriate test articles as indicated above. Drug dosing was done once daily for 14 d. Blood samples were collected at 30, 60, 120, 240 and 1440 minutes after dose administration on day 11 for pharmacokinetic analyses. Plasma was separated for HPLC analysis of parent drug concentrations. Tears were collected using Schirmer tear strips (Alcon, Tex.) on day 0 before surgery and 24 hours after the last administration of drug (day 15). The tears were stored at −80° C. until shipment for analysis. Lipids were hydrolyzed, extracted from the Schirmer strips, derivatized, and subjected to GC-FID to evaluate the lipid composition. The samples were evaluated for the presence of 28 saturated and unsaturated fatty acids that included methyl caprate (C10:0), methyl laurate (C12:0), methyl 11-dodecenoate (C12:1), methyl myristate (C14:0), methyl myristoleate (C14:1), methyl palmitate (C16:0), methyl palmitoleate (C16:1), methyl stearate (C18:0), methyl oleate (C18:1), methyl vaccenate (C18:1), methyl linoleate (C18:2), methyl gamma linoleate (C18:3), methyl linoleate (C18:3), methyl arachidate (C20:0), methyl 11-eicosenoate (C20:1), methyl 11,14 eicosadinoate (C20:2), methyl 8,11,14 eicosatrienoate (C20:3), methyl eicosapentaenoate (C20:5), methyl behenate (C22:0), methyl erucate (C22:1), methyl 13,16 docosaenoate (C22:2), methyl docosatetraenoate (C22:4), methyl docosapentaenoate (C22:5), methyl docosahexaenoate (C22:6), methyl lignocerate (C24:0), and methyl nervonate (C24:1). Area under the curve for each individual peak was determined using the GC ChemStation software. To normalize for the tear content, the lipid composition was expressed as a ratio of the lipid that was most affected by castration (palmitate) to one which remained relatively constant (stearate).
(§1) At the end of the study, the animals were euthanatized. The left harderian and Meibomian glands were collected for lipid analysis and snap frozen using an ethanol:dry ice bath. Samples were stored at −80° C. until shipment for analysis. The right eyelids were embedded in OCT medium and shipped to Paragon Biosciences (Washington D.C.) for histology and Oil-red-O quantification of lipids. Images of three separate fields were taken from each eyelid at random and the amount of cells staining red in each field was scored using commercially available software. A scoring scheme was adopted with a scale of 0-4 to evaluate the staining intensities with 0=<1% cells stained, 1+ for 2-5% of cells stained, 2+=6-10% stain, 3+=11-20% staining, 4+ for >21% cells stained.

[2] = tested on: acute orchiectomized (ORX) rabbit model; test: Oil-Red-O lipid staining score of Meibomian gland (eyelid) sections, Example 4; settings: ORX rabbits, topical 2.5 mg/kg; scale 0-4 by % cells stained; sham 3.75, ORX vehicle 3.2
Description: as §1
Oil-Red-O is a lipophilic dye that is commonly used to stain lipid containing cells in histological sections. The amount of Oil-Red-O stain in each section is proportional to the number of cells synthesizing or storing lipid. A relative scoring system was adopted to evaluate the differences in lipid content of the Meibomian gland sections from treated and untreated animals in the study. […] Upon treatment with Compound 2, the lipid staining was seen to increase to that of the intact animals (score=3.8).

[3] = Pharmacokinetic analysis of rabbit plasma after topical dosing, Example 4; settings: topical or ocular, 2.5 mg/kg, topical 2.5 mg/kg, day 11 of dosing, read-out: Mean plasma concentrations over time (AUC)
Description: Immediately after the animals had recovered from anesthesia, they were dosed with the appropriate test articles as indicated above. Drug dosing was done once daily for 14 d. Blood samples were collected at 30, 60, 120, 240 and 1440 minutes after dose administration on day 11 for pharmacokinetic analyses. Plasma was separated for HPLC analysis of parent drug concentrations. Tears were collected using Schirmer tear strips (Alcon, Tex.) on day 0 before surgery and 24 hours after the last administration of drug (day 15). The tears were stored at −80° C. until shipment for analysis. […] Area under the curve for each individual peak was determined using the GC ChemStation software. To normalize for the tear content, the lipid composition was expressed as a ratio of the lipid that was most affected by castration (palmitate) to one which remained relatively constant (stearate).
Plasma samples collected after dosing on day 11 were analyzed using an LCMS/MS method. […]
Mobile phase consisted of 60% acetonitrile, 40% water and 0.1% formic acid. […] The plasma concentration—time data were analyzed by non-compartmental methods using WinNonlin (Version 3.1, Pharsight Corporation, Mountain View, Calif., USA). The area under the plasma concentration—time curve from time zero to infinity (AUC) was calculated by the trapezoidal rule with extrapolation to time infinity. […]

SMILES	Palmitate:stearate ratios in Meibomian glands [1]	Palmitate:stearate ratios in harderian glands [1]	Change of palmitate:stearate ratio in Meibomian glands ([1]; topical 2.5 mg/kg)	Change of palmitate:stearate ratio in harderian glands compared to control animals ([1]; topical 2.5 mg/kg)	Oil-Red-O score [2]	AUC [3] [µM·h]	Increase of tear palmitate:stearate ratio over intact vehicle treated animals ([1]; topical 2.5 mg/kg) [fold]	Increase of tear palmitate:stearate ratio relative to ORX vehicle-treated animals ([1]; topical 2.5 mg/kg)
C[C@](O)(COc1ccc(C#N)cc1)C(=O)Nc1ccc(C#N)c(C(F)(F)F)c1 [Compound 1, (S)—N-(4-Cyano-3-(trifluoromethyl)phenyl)-3-(4-cyanophenoxy)-2-hydroxy-2-methylpropanamide]	4.07^b	5.1	two fold increase	no change	3.4	25.2	–	–
C[C@](O)(COc1ccc(C#N)c(F)c1)C(=O)Nc1ccc(C#N)c(C(F)(F)F)c1 [Compound 2, (S)—N-(4-cyano-3-(trifluoromethyl)phenyl)-3-(4-cyano-3-fluorophenoxy)-2-hydroxy-2-methylpropanamide]	2.82	7.76	mild increase	significant increase	3.8	12.2	~1.5	approximately 2.5 times
